The record followed here is ChEMBL document CHEMBL3124920, “Substituted Benzofurans as Inhibitors of HCV NS5B Protein” (ACS Med Chem Lett, 2014).

One test relates to Hepatitis C virus. The test can be described thus: Antiviral activity against Hepatitis C virus genotype 1b infected in human HuH7 cells after 3 days by luciferase reporter gene assay. The test is classed as functional, organism-based, Hepacivirus hominis. The following applies: Huh-7, 72 h. In general terms: In a reporter assay the amount or activity of a reporter protein is the signal.

Test [1] in a line: Inhibition of HCV NS5B polymerase after 4 hrs by on-bead solid phase homogeneous assay. Set-up: species or system Hepacivirus hominis.

pEC50, pIC50: −log10 of the molar value.

Turning to `CCN(c1cc2oc(-c3ccc(F)cc3)c(-c3ncc[nH]3)c2c(F)c1-c1cc(C(=O)NC2(c3ncccn3)CC2)c(OC)cc1C)S(C)(=O)=O`, the pEC50 (in general, −log10 of the EC50, conventionally taken in molar units) in the test on Hepatitis C virus was 8.05.
As for `CCNc1cc2oc(-c3ccc(F)cc3)c(-c3ncc[nH]3)c2c(F)c1-c1cc(C(=O)NC2(c3ncccn3)CC2)c(OC)cc1C`, in the test on Hepatitis C virus, the pEC50 was 8.14.
Regarding `COc1cc(C)c(-c2ccc3oc(-c4ccc(F)cc4)c(-c4ncc[nH]4)c3c2F)cc1C(=O)NC1(c2ncccn2)CC1`, the pEC50 in the test on Hepatitis C virus was 7.52. The pIC50 (commonly the IC50 on a negative log10 scale, so that one unit is a factor of ten) in test [1] is 7.52.
